Molecular target: T1, Smo (Mus musculus, UniProt P56726)
T1 construct: endogenous in cells; host or cells: NIH-3T3 cells stably carrying the Gli reporter plasmid
Assay: Gli reporter luciferase assay in NIH-3T3/Gli reporter cells stimulated with mouse Shh-N end fragment
Format: cell-based
Settings: NIH3T3; 1 μM compound; NIH-3T3/Gli reporter cells with mouse Shh-N culture supernatant, 48 hr; luciferase activity, control without compound as 100; read-out: inhibitory rate (%) at 1 μM
Description: Gli reporter plasmid was constructed by inserting 8×Gli-binding site and chicken δ-crystalline promoter into the upstream of luc+ of pGL3 (Promega).
prepared in reference to the base sequence described in GenBank accession No.; X02187, and chicken genome DNA (Clontech) as a template. PCR reaction was performed using Pfu Turbo (Stratagene) and following the attached protocol. The obtained 108 bp fragment was digested with restriction enzymes BglII and HindIII, and inserted into BglII-HindIII site of pGL3 to give plasmid pGL3/δ-cry promoter.
As 8×Gli-binding site, a sequence containing eight 9-bp Gli bound consensus sequences (GACCACCCA) described in Yoon et al., J. Biol. Chem., vol. 273, pages 3496-3501 (1998) was prepared from synthetic DNA. That is, two synthetic DNAs,
were heat treated at 95° C. for 2 minutes, and incubated at 37° C. for 1 hr for annealing to give a double stranded DNA of the above-mentioned two synthetic DNAs. The obtained double stranded DNA was digested with restriction enzymes BglII and KpnI, and the obtained DNA fragment was inserted into BglII-KpnI site of pGL3/δ-cry promoter to construct plasmid pGL3/δ-cry promoter, 8×Gli binding site, i.e., Gli reporter plasmid.
HEK293 cells were grown in D-MEM medium (Invitrogen) containing 10% fetal bovine serum in a 10 cm dish and pcDNA3.1/mShh-N was introduced into the cells using FuGENE6 (Roche Applied Science). Thereafter, the HEK293 cells were cultured in a carbon dioxide gas incubator at 37° C. for 24 hours, and the medium was exchanged with D-MEM medium (Invitrogen) containing 2% fetal bovine serum. After culturing for 48 hr, a culture supernatant containing recombinant type mouse Shh-N end fragment was obtained by filtration using a filter ([…]).
Using D-MEM (Invitrogen) containing 10% fetal bovine serum, expression plasmid pcDNA3.1 and Gli reporter plasmid (pGL3/δ-cry promoter, 8×Gli binding site) produced by the method of Experimental Example 1 were introduced into NIH-3T3 cells grown in a 10 cm dish by the use of FuGENE6 (Roche Applied Science).
After culture for 24 hr, the cells were recovered, suspended in D-MEM medium containing 10% fetal bovine serum and supplemented with Geneticin (Life Technologies Oriental, Inc.) to a final concentration of 500 μg/ml, diluted to 10^4 cells/ml, plated on a 96 well plate, and cultured in a carbon dioxide gas incubator at 37° C. to give Geneticin resistant transformed cell line.
The obtained transformed cell line was cultured in a 96 well plate, mouse Shh-N end fragment obtained in Experimental Example 3 was added, and NIH-3T3/Gli reporter cell, which is a cell line capable of induction of luciferase expression, was selected.
NIH-3T3/Gli reporter cells cultured in D-MEM (Invitrogen) containing 10% fetal bovine serum were plated in a 96 well white plate at 1×10^4 cells/well, and cultured overnight in a carbon dioxide gas incubator at 37° C. The medium was removed, a compound (50 μl) and culture supernatant of mouse Shh-N end fragment-expressing HEK293 (D-MEM medium containing 2% fetal bovine serum, 50 μl) were added, and the cells were cultured for 48 hr in a carbon dioxide gas incubator at 37° C. Bright-Glo (Promega, 50 μl) was added, and the mixture was stirred, after which luciferase activity was measured by EnVision (PerkinElmer). The inhibition rate was calculated based on the luciferase activity of the control without addition of the compound as 100.

T1 sequence (P56726 33-793): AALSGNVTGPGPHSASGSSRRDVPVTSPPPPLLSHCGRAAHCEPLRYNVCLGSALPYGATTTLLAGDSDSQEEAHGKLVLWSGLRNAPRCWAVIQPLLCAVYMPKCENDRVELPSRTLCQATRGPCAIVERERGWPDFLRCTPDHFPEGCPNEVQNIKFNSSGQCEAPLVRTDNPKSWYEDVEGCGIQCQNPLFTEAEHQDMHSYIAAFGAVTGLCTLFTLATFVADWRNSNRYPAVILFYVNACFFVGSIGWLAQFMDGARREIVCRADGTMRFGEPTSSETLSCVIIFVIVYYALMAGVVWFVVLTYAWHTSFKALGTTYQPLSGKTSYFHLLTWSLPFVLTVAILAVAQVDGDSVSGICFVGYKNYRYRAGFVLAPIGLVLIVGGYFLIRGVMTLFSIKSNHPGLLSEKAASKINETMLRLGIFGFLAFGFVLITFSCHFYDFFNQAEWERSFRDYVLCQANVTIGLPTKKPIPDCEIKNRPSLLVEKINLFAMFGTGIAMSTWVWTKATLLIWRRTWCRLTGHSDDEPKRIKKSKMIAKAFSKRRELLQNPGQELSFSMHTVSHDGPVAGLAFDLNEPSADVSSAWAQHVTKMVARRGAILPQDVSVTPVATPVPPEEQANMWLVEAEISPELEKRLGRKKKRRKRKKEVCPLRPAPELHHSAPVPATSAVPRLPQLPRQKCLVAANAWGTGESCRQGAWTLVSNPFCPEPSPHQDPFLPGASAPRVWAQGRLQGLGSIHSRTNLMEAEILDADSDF

inhibition at 1 µM [%]	SMILES
97	COc1cccc(Cn2c(C)nc3c(c(OCC(F)(F)F)c(C(=O)NC4CCN(C(=O)CO)CC4)n3C)c2=O)c1 [Example 6, N-[1-(hydroxyacetyl)piperidin-4-yl]-3-(3-methoxybenzyl)-2,7-dimethyl-4-oxo-5-(2,2,2-trifluoroethoxy)-4,7-dihydro-3H-pyrrolo[2,3-d]pyrimidine-6-carboxamide]
97	CCc1nc2c(c(OC(C)C)c(C(=O)NC3CCN(C(=O)CO)CC3)n2C)c(=O)n1CC(=O)c1ccc(F)cc1 [Example 34, 2-ethyl-3-[2-(4-fluorophenyl)-2-oxoethyl]-N-[1-(hydroxyacetyl)piperidin-4-yl]-7-methyl-5-(1-methylethoxy)-4-oxo-4,7-dihydro-3H-pyrrolo[2,3-d]pyrimidine-6-carboxamide]
93	Cc1nc2c(c(OC(C)C)c(C(=O)NC3CCN(C(=O)CO)CC3)n2C)c(=O)n1CC(=O)c1ccccc1 [Example 3, N-[1-(hydroxyacetyl)piperidin-4-yl]-2,7-dimethyl-5-(1-methylethoxy)-4-oxo-3-(2-oxo-2-phenylethyl)-4,7-dihydro-3H-pyrrolo[2,3-d]pyrimidine-6-carboxamide]

From patent publication US8614208B2, “Fused heterocyclic ring derivative and use thereof” (Takeda Pharmaceutical Company Limited, priority 2009, dated 2013)
